Data from US7534897B2 (Shionogi & Co., Ltd., priority 2002, dated 2009).

Columns and labels:
CRTH2 = molecular target: T1, CRTH2 (Homo sapiens, UniProt Q9Y5Y4); assay: Binding activity to CRTH2 ([3H]PGD2 binding assay); details: membrane fraction of CRTH2-transfected K562 cells, read-out: CRTH2 inhibitory activity IC50
T1 construct: expressed in transfected cells; host or cells: K562 cells (membrane fraction)
T1 sequence (Q9Y5Y4 1-395): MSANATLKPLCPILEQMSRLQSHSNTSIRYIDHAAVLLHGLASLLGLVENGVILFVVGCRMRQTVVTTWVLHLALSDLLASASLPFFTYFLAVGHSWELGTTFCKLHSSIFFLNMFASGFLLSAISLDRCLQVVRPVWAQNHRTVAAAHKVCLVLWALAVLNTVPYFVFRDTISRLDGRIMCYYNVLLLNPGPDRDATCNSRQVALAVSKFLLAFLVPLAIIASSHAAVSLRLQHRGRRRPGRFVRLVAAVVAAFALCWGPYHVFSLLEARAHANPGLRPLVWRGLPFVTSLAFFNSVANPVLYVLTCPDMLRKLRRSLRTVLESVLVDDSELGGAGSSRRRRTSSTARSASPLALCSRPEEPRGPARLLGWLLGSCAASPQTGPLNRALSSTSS
Procedure: Experiment 1 Binding Activity to CRTH2
The membrane fraction prepared with CRTH2-transfected K562 cells was used for a binding assay. To a binding-reaction solution (50 mM Tris/HCl, pH 7.4, 10 mM MgCl2) the membrane fraction (0.06 mg) and 3 nM [^3H]PGD2 (172 Ci/mmol) were added, and the mixture was reacted at room temperature for 60 min. After the reaction, the mixture was filtered through a glass fiber filter paper and washed several times with cooled physiological saline, then the radioactivity retained on the filter paper was measured. The specific-binding ratio was calculated by subtracting the non-specific binding ratio which is the radioactivity similarly measured in the presence of 10 μM PGD2 from the total binding.

[1] = molecular target: T2, human CRTH2-transfected K562 cells (Homo sapiens, UniProt Q9Y5Y4); assay: Antagonistic activity to CRTH2: calcium mobilization assay induced by PGD2; format: cell-based; details: compound at 1 μM, percent inhibition of PGD2-induced calcium mobilization
T2 construct: expressed in transfected cells; host or cells: K562 cells
T2 sequence (Q9Y5Y4 1-395): T1 sequence (Q9Y5Y4 1-395)
Procedure: Experiment 2 Evaluation of Antagonistic Activity to CRTH2
To evaluate the antagonistic activity of compounds against CRTH2, calcium mobilization assay induced by PGD2 was performed using CRTH2 transfectants.
The human CRTH2-transfected K562 cells were suspended at 2×10^6 cells/ml in assay buffer (10 mM HEPES buffer, pH 7.4, 0.1% Bovine serum albumin), and were incubated with Fura-2 AM (2 μM) for 60 min at room temperature. After washing cells were resuspended again with assay buffer, incubated at 37° C., and then treated with various concentrations of compounds for 2 min. The emitted fluorescence was measured on a calcium analyzer (CAF-110) after addition of PGD2.

Row | IC50 (CRTH2) [nM] | antagonistic activity to CRTH2 (% INH) [1] [% INH] | melting point | SMILES
1 | 5.9 |  |  | O=C(O)Cn1c2c(c3ccccc31)CC(NS(=O)(=O)c1ccc(F)cc1)CC2 (single isomer, unassigned; (+)) [(+)-Ib-16]
2 | 13 |  |  | Cc1ccc(S(=O)(=O)NC2CCc3c(c4ccccc4n3CC(=O)O)C2)cc1 (single isomer, unassigned; (+)) [(+)-Ib-18]
3 | 7.9 |  |  | O=C(O)Cn1c2c(c3ccccc31)CC(NS(=O)(=O)c1cccs1)CC2 (single isomer, unassigned; (+)) [(+)-Ib-20]
4 | 6.2 |  |  | Cc1ccc(S(=O)(=O)N(C)C2CCc3c(c4ccccc4n3CC(=O)O)C2)cc1 (single isomer, unassigned; (+)) [(+)-Ib-27]
5 | 4.9 |  |  | CN(C1CCc2c(c3ccccc3n2CC(=O)O)C1)S(=O)(=O)c1cccs1 (single isomer, unassigned; (+)) [(+)-Ib-29]
6 | 37 |  |  | O=C(O)Cn1cc(CCNS(=O)(=O)c2ccc(-c3ccc(F)cc3)cc2)c2ccccc21 [Ia-15]
7 | 22 |  |  | Cc1c(CCNS(=O)(=O)c2ccc(F)cc2)c2ccccc2n1CC(=O)O [Ia-20]
8 | 18 |  |  | O=C(O)Cn1cc(CCNS(=O)(=O)c2ccc(F)cc2)c2cc(Cl)ccc21 [Ia-32]
9 | 15 | 89 |  | O=C(O)Cn1cc(CCNS(=O)(=O)c2ccc(F)cc2)c2cc(F)ccc21 [Ia-36]
10 | 45 |  |  | CN(CCc1cn(CC(=O)O)c2ccccc12)S(=O)(=O)c1ccc(F)cc1 [Ia-39]
11 | 34 |  |  | Cc1c(CCN(C)S(=O)(=O)c2ccc(F)cc2)c2ccccc2n1CC(=O)O [Ia-41]
12 | 23 |  |  | CN(CCc1cn(CC(=O)O)c2ccc(Cl)cc12)S(=O)(=O)c1ccc(F)cc1 [Ia-44]
13 | 19 |  |  | CN(CCc1cn(CC(=O)O)c2ccc(F)cc12)S(=O)(=O)c1ccc(F)cc1 [Ia-45]
14 | 51 |  |  | C=CCN(CCc1cn(CC(=O)O)c2ccccc12)S(=O)(=O)c1ccc(F)cc1 [Ia-47]
15 | 57 |  |  | CC(C)N(CCc1cn(CC(=O)O)c2ccccc12)S(=O)(=O)c1ccc(F)cc1 [Ia-48]
16 | 20 | 91 |  | O=C(O)Cn1cc(CCN(Cc2ccccc2)S(=O)(=O)c2ccc(F)cc2)c2ccccc21 [Ia-51]
17 | 24 |  |  | CS(=O)(=O)NC(=O)Cn1cc(CCN(Cc2ccccc2)S(=O)(=O)c2ccc(F)cc2)c2ccccc21 [Ia-52]
18 | 42 |  |  | Cc1c(CCN(Cc2ccccc2)S(=O)(=O)c2ccc(F)cc2)c2ccccc2n1CC(=O)O [Ia-55]
19 | 57 |  |  | COc1ccc2c(c1)c(CCN(Cc1ccccc1)S(=O)(=O)c1ccc(F)cc1)cn2CC(=O)O [Ia-57]

Row | IC50 (CRTH2) [nM] | antagonistic activity to CRTH2 (% INH) [1] [% INH] | melting point | SMILES
20 | 33 |  |  | O=C(O)Cn1cc(CCN(Cc2ccccc2)S(=O)(=O)c2ccc(F)cc2)c2cc(Cl)ccc21 [Ia-58]
21 | 23 |  |  | O=C(O)Cn1cc(CCN(Cc2ccccc2)S(=O)(=O)c2ccc(F)cc2)c2cc(F)ccc21 [Ia-59]
22 | 45 |  |  | Cc1ccccc1CN(CCc1cn(CC(=O)O)c2ccccc12)S(=O)(=O)c1ccc(F)cc1 [Ia-61]
23 | 49 |  | 108 to 110 °C | COc1ccc(CN(CCc2cn(CC(=O)O)c3ccccc23)S(=O)(=O)c2ccc(F)cc2)cc1 [Ia-62]
24 | 54 |  |  | O=C(O)Cn1cc(CCN(Cc2ccc([N+](=O)[O-])cc2)S(=O)(=O)c2ccc(F)cc2)c2ccccc21 [Ia-63]
25 | 27 |  |  | O=C(O)Cn1cc(CCN(Cc2cccs2)S(=O)(=O)c2ccc(F)cc2)c2ccccc21 [Ia-65]
26 | 37 |  |  | O=C(O)Cn1cc(CCN(CCc2ccccc2)S(=O)(=O)c2ccc(F)cc2)c2ccccc21 [Ia-66]
27 | 80 |  |  | O=C(O)Cn1cc(CCCN(Cc2ccccc2)S(=O)(=O)c2ccc(F)cc2)c2ccccc21 [Ia-85]
28 | 55 |  |  | CN(C1Cc2c(n(CC(=O)O)c3ccccc23)C1)S(=O)(=O)c1ccc(F)cc1 (stereo not drawn) [Ib-6]
29 | 12 |  |  | O=C(O)Cn1c2c(c3ccccc31)CC(NS(=O)(=O)c1ccsc1)CC2 (stereo not drawn) [Ib-21]
30 | 5.3 |  | 175 to 180 °C | CN(C1CCc2c(c3ccccc3n2CC(=O)O)C1)S(=O)(=O)c1ccsc1 (stereo not drawn) [Ib-30]
31 | 59 | 96 | 138 to 140 °C | CN(C1CCc2c(c3ccccc3n2CC(=O)O)C1)S(=O)(=O)c1ccc(Cc2ccccc2)s1 (stereo not drawn) [Ib-31]
32 | 21 |  | 142 to 143 °C | O=C(O)Cn1cc(C2=CCCN(S(=O)(=O)c3ccc(F)cc3)C2)c2ccccc21 [Ic-2]
33 | 4.5 | 100 | 189 to 194 °C (dec.) | O=C(O)Cn1cc(C2CCCN(S(=O)(=O)c3ccc(F)cc3)C2)c2ccccc21 (stereo not drawn) [Ic-6]
34 | 5.5 |  | 155 to 156 °C | O=C(O)Cn1cc(C2CCN(S(=O)(=O)c3ccc(F)cc3)C2)c2ccccc21 (stereo not drawn) [Ic-14]
35 | 39 |  | 139 to 141 °C | O=C(O)Cn1c2ccccc2c2cc(NS(=O)(=O)c3ccc(F)cc3)ccc21 [Ie-2]
36 | 18 |  | 188 to 191 °C | CN(c1ccc2c(c1)c1ccccc1n2CC(=O)O)S(=O)(=O)c1ccc(F)cc1 [Ie-5]
37 | 26 |  | 212 to 213 °C | O=C(O)Cn1c2ccccc2c2cc(N(Cc3ccccc3)S(=O)(=O)c3ccc(F)cc3)ccc21 [Ie-8]
38 | 19 |  |  | Cc1c(C(C)(C)CNS(=O)(=O)c2ccc(F)cc2)c2ccccc2n1CC(=O)O [If-1]

Row | IC50 (CRTH2) [nM] | antagonistic activity to CRTH2 (% INH) [1] [% INH] | melting point | SMILES
39 | 16 |  |  | Cc1c(C(C)CNS(=O)(=O)c2ccc(F)cc2)c2ccccc2n1CC(=O)O (stereo not drawn) [If-4]
40 | 12 |  | 117 to 120 °C | O=C(O)Cn1cc(C(CNS(=O)(=O)c2ccc(F)cc2)c2ccccc2)c2ccccc21 (stereo not drawn) [If-9]
41 | 9.7 |  | 214 to 217 °C | CN(c1ccc2c(c1)c1c(n2CC(=O)O)CCSC1)S(=O)(=O)c1ccc(F)cc1 [Ig-3]
42 | 10 |  | 209 to 211 °C | O=C(O)Cn1c2c(c3cc(NS(=O)(=O)c4ccc(F)cc4)ccc31)CCCCC2 [Ig-11]
43 | 8.3 |  | 144 to 150 °C | COc1ccc(S(=O)(=O)N(C)c2ccc3c(c2)c2c(n3CC(=O)O)CCCCC2)cc1 [Ig-14]
44 | 7.5 |  |  | CCN(c1ccc2c(c1)c1c(n2CC(=O)O)CCCCC1)S(=O)(=O)c1ccc(F)cc1 [Ig-15]
45 | 3.6 |  | 186 to 189 °C | CN(c1ccc2c(c1)c1c(n2CC(=O)O)CCCCC1)S(=O)(=O)c1ccc(O)cc1 [Ig-16]
46 | 19 |  | 193 to 197 °C | O=C(O)Cn1c2c(c3cc(NS(=O)(=O)c4ccc(F)cc4)ccc31)CCCCCC2 [Ig-18]
47 | 33 |  | 198 to 202 °C | O=C(O)Cn1c2c(c3cc(N(Cc4ccccc4)S(=O)(=O)c4ccc(F)cc4)ccc31)CCCC2 [Ih-3]
48 | 23 |  | 100 to 101 °C | CC1CCc2c(c3cc(N(C)S(=O)(=O)c4ccc(F)cc4)ccc3n2CC(=O)O)C1 (stereo not drawn) [Ih-5]
49 | 34 |  | 176 to 178 °C | CC1CCc2c(c3cc(N(Cc4ccccc4)S(=O)(=O)c4ccc(F)cc4)ccc3n2CC(=O)O)C1 (stereo not drawn) [Ih-6]
50 | 26 |  |  | O=C(O)Cn1cc(C2CCC(NS(=O)(=O)c3ccc(F)cc3)C2)c2ccccc21 (stereo not drawn) [Ij-1]
51 | 53 |  |  | CN(C1CCC(c2cn(CC(=O)O)c3ccccc23)C1)S(=O)(=O)c1ccc(F)cc1 (stereo not drawn) [Ij-2]
52 | 53 |  |  | O=C(O)Cn1cc(C2CCC(N(Cc3ccccc3)S(=O)(=O)c3ccc(F)cc3)C2)c2ccccc21 (stereo not drawn) [Ij-3]
53 | 48 |  | 165 to 179 °C | Cc1c(C)n(CC(=O)O)c2ccc(N(C)S(=O)(=O)c3ccc(F)cc3)cc12 [Ik-1]
54 | 86 |  | 206 to 208 °C (dec.) | Cc1cc2cc(N(C)S(=O)(=O)c3ccc(F)cc3)ccc2n1CC(=O)O [Ik-2]
55 | 51 |  | 172 to 178 °C | CCc1c(C)n(CC(=O)O)c2ccc(NS(=O)(=O)c3ccc(F)cc3)cc12 [Ik-3]
56 | 47 |  | 165 to 171 °C | Cc1c(C(C)C)c2cc(NS(=O)(=O)c3ccc(F)cc3)ccc2n1CC(=O)O [Ik-4]
57 | 19 |  | 161 to 167 °C | CCc1c(C)n(CC(=O)O)c2ccc(N(C)S(=O)(=O)c3ccc(F)cc3)cc12 [Ik-5]

Row | SMILES | IC50 (CRTH2) [nM] | antagonistic activity to CRTH2 (% INH) [1] [% INH] | melting point
58 | CN(c1ccc2c(c1)c1c(n2CC(=O)O)CCCC1=O)S(=O)(=O)c1ccc(F)cc1 [Ig-4] | 7.8 |  | 218 to 220 °C
59 | CN(c1ccc2c(c1)c1c(n2CC(=O)O)CCCC1)S(=O)(=O)c1ccc(F)cc1 [Ih-2] |  | 91 | 
